Measured values: patent US20150057243A1, “Compositions and Methods for the Inhibition of Methyltransferases” (Northeastern University, priority 2012, published 2015)

Assays:
[1] = target: T1, human betaine-homocysteine S-methyltransferase (Homo sapiens, UniProt Q93088); settings: cited from earlier work
T1 sequence (Q93088 1-406): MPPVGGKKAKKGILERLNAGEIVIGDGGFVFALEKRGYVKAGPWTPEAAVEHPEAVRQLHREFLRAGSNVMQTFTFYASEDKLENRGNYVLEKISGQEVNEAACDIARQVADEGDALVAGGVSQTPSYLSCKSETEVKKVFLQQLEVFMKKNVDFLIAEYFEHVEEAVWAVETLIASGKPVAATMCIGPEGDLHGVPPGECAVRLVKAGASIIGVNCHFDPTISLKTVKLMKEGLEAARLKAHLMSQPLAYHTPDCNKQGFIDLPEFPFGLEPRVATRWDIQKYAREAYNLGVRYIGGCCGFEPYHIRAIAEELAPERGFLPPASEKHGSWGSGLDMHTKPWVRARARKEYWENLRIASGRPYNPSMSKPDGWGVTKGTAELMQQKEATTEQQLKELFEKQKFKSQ

TPMT [2] = target: T2, TPMT (Homo sapiens, UniProt P51580); test: specificity assay with AdoVin (time-dependent UV absorbance change); type: biochemical; settings: FIG. 34
T2 construct: made in house
T2 sequence (P51580 1-245): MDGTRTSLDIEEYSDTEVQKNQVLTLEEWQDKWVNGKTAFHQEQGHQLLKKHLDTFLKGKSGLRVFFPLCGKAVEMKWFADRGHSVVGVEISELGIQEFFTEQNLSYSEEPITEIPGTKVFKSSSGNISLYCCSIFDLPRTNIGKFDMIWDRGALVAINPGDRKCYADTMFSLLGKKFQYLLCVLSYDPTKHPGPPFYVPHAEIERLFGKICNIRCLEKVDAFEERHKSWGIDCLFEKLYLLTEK
Excerpt: In comparison, the concentration of 4-methoxybenzylthiol decreased in the presence of AdoVin, indicating a reaction with AdoVin.

TPMT [3] = target: T2, TPMT; settings: data referred to for comparison; cited from earlier work
mammalian cells = settings: cited from earlier work
trypanosomes = settings: Goldberg 1997; cited from earlier work
Leishmania promastigotes = settings: Lawrence 1993, Avila 1993; cited from earlier work
[4] = tested on: Candida albicans and various Aspergillus species; settings: cited from earlier work
cells = settings: cited from earlier work
[5] = target: T3, histidine-tagged TPMT enzyme (Homo sapiens, UniProt P51580); test: AdoVin-TNB binding assay, histidine-tagged TPMT isolated using nickel spin column; settings: XIC (FIG. 30 top panel)
T3 construct: made in house
T3 sequence (P51580 1-245): T2 sequence (P51580 1-245)
Method: The histidine-tagged TPMT enzyme was isolated using nickel spin column. 610.0 m/z at 8.6 min is for the TNB-AdoVin adduct (confirmed by tandem mass analysis), 411.0 m/z at 1.6 min is for AdoVin, and 162.0 m/z at 6.2 min is for vinthionine. […] The peak around 1.58 minutes with m/z 411.0 corresponds to AdoVin, while the peak around 6.2 min with m/z 162.0 corresponds to vinthionine.
Recombinant histidine-tagged human thiopurine methyltransferase (TPMT, EC 2.1.1.67) and S-adenosylhomocysteine nucleosidase (MTAN, EC 3.2.2.9) were purified as described. See Cannon, L. M. et al. Anal. Biochem. 2002, 308, 35/-363; Lee, J. E. et al. Acta Crystallogr. D. Biol. Crystallogr. 2001, 57, 150-152. The recombinant E. coli homocysteine S-methyltransferase (HMT, EC 2.1.1.10) was a gift from Steven G Clark (UCLA Department of Chemistry and Biochemistry, Los Angeles, Calif.), and purified as described. See Vinci, C. R.; Clarke, S. G. J. Biol. Chem. 2010, 285(27), 20526-20531; Vinci, C. R.; Clarke, S. G. J. Biol. Chem. 2007, 282(12), 8604-8612.

C=CSCCC(N)C(=O)O (racemic) [DL-S-Vinylhomocysteine]
inhibition of human betaine-homocysteine S-methyltransferase [1]: not to be an inhibitor

COc1ccc(CS)cc1 [4-methoxybenzylthiol]
time-dependent UV absorbance / concentration change in the presence of AdoVin (TPMT [2]): decreased | reaction with AdoMet (the natural substrate for TPMT) (TPMT [3]): reacts

O=[N+]([O-])c1ccc(O)cc1 [4-nitrophenol]
time-dependent UV absorbance / concentration change in the presence of AdoVin (TPMT [2]): No change was observed | reaction with AdoMet (the natural substrate for TPMT) (TPMT [3]): does not react

C[S+](CC[C@H](N)C(=O)[O-])C[C@H]1O[C@@H](n2cnc3c(N)ncnc32)[C@H](O)[C@@H]1O (stereo partly drawn) [AdoMet, S-Adenosyl-methionine]
active transport into mammalian cells (mammalian cells): not actively transported | active transport into trypanosomes (trypanosomes): actively transported | active transport into Leishmania promastigotes (Leishmania promastigotes): actively transported | active transport into Candida albicans and various Aspergillus species [4]: actively transported

C=CSCC[C@H](N)C(=O)O [L-S-Vinylhomocysteine]
active transport into cells (cells): actively transported into cells

C=CSCC[C@H](N)C(=O)O [vinthionine, S-Demethyl-5-vinyl-L-methionine]
presence in the enzyme complex [5]: absence | cell permeability (cells): cell permeable
